Patent US20100239639A1, “MEDICATED PATCH” (HISAMITSU PHARMACEUTICAL CO., INC., priority 2007, published 2010)

Experiment: Solubility test of BM-DBM
Assay type: physicochemical
Conditions: 1 g BM-DBM mixed with 2 g additive, dissolved at 140° C., cooled to room temperature for 30 min
Experimental: 1 g of BM-DBM was mixed with 2 g of an additive, dissolved at 140° C., then the mixture was cooled to room temperature for 30 min and its state was observed.

Question: Which “Solubility of BM-DBM” value does the source give for CCCCCCCCCCCC(=O)OCCCCCC [Hexyl laurate] here?
Answer: Its value is “◯”.

Question: What about the “solubility of BM-DBM (in words)” value of the same molecule?
Answer: Its value is “particularly good solubility of BM-DBM”.
